This passage reports Ki results from ChEMBL document CHEMBL3864169, “Quinazoline Carboxamides as Selective Antagonists of Adenosine 2A Receptor” (ACS Med Chem Lett, 2016).

This assay concerns the target Adenosine receptor A2a (Homo sapiens, UniProt P29274). The experiment in a line: Displacement of [3H]5-amino-7-[2- phenethyl]-2-(furan-2-yl)-7H-pyrazolo[4,3-e][l,2,4]triazolo[l,5-c]pyrimidine from human adenosine A2A receptor expressed in HEK293 cell membranes measured after 1 hr by TopCount scintillation counting method. On the technique in general: Loss of bound radioactivity is the signal in a displacement assay; it reports binding, not function.

Sequence of Adenosine receptor A2a (P29274 whole entry): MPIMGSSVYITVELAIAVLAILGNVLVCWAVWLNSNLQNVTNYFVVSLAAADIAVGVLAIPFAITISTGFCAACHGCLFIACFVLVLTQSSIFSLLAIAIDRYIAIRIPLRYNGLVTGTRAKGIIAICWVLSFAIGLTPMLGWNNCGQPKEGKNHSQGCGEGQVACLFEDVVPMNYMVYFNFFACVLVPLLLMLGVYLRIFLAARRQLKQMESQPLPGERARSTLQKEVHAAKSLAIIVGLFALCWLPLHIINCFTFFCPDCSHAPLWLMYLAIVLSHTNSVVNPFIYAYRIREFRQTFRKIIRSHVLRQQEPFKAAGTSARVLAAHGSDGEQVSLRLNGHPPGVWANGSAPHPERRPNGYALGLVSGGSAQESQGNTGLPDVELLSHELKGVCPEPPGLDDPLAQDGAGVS

In turn, `CC(C)OCc1cccc(CNC(=O)c2nc(N)nc3c(F)cccc23)n1` gave an inhibition constant Ki of 1 nM.

For orientation: Ki means a measure of affinity in units of concentration, obtained from inhibition or displacement. High values mean a looser hold on the target, low ones a stronger hold on the target.
